Experimental data from US10738057B2, “Tertiary alcohols as PI3K-γ inhibitors” (Incyte Corporation, priority 2017, dated 2020).
Counter-ions that a name gives are not always drawn. Like-named read-outs stand apart in the source and are kept apart here.

Assays:
[1] = biological target: PI3Kγ (p110γ) Recombinant Human Protein (Homo sapiens (Human), UniProt P48736); assay: PI3K-γ scintillation proximity assay; assay type: biochemical; conditions: 20 μM PIP2, 2 μM ATP, 13 nM PI3Kγ, 120 min, room temperature
Sequence of PI3Kγ (p110γ) Recombinant Human Protein (P48736 whole entry): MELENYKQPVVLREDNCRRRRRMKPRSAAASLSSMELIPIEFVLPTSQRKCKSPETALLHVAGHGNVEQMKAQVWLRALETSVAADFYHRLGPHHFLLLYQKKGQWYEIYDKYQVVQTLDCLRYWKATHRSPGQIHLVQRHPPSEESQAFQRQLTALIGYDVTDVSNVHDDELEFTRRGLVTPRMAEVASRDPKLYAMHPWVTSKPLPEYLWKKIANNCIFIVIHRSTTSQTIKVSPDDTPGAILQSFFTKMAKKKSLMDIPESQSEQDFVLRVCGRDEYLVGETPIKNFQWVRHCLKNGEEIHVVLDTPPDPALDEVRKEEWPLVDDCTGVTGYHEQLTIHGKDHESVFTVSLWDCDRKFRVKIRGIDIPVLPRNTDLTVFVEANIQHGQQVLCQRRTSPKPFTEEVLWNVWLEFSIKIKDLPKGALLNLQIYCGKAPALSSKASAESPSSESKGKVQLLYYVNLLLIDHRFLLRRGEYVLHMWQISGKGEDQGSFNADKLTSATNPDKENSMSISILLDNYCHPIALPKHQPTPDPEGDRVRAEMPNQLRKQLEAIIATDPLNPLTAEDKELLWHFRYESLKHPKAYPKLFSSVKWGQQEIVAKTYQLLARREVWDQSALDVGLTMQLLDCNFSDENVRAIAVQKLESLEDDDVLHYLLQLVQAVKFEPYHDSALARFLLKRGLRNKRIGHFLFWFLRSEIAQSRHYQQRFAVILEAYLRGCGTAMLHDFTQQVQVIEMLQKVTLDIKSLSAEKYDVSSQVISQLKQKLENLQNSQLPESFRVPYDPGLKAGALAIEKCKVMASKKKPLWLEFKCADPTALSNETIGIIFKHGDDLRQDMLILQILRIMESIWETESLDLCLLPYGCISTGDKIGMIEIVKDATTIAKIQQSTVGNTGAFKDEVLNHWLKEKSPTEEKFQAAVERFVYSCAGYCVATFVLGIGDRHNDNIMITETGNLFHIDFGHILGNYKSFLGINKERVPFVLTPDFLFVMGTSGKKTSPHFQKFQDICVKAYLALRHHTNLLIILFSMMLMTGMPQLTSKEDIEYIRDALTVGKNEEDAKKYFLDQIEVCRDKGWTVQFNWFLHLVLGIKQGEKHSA
How it was run: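 Radiometric SPA in 20 mM MOPS pH 6.7, 10 mM MgCl2, 5 mM DTT, 0.03% CHAPS, 2% DMSO. Stopped with EDTA and WGA SPA beads for scintillation counting. IC50 fitted from % solvent-control activity versus log concentration.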

[2] = biological target: PI3Kδ (p110δ/p85α) Recombinant Human Protein (Homo sapiens (Human), UniProt O00329); assay: PI3Kδ scintillation proximity assay; assay type: biochemical; conditions: 20 μM PIP2, 2 μM ATP, 3.4 nM PI3Kδ, 120 min, room temperature; read-out: PI3Kδ IC50
Sequence of PI3Kδ (p110δ/p85α) Recombinant Human Protein (O00329 whole entry): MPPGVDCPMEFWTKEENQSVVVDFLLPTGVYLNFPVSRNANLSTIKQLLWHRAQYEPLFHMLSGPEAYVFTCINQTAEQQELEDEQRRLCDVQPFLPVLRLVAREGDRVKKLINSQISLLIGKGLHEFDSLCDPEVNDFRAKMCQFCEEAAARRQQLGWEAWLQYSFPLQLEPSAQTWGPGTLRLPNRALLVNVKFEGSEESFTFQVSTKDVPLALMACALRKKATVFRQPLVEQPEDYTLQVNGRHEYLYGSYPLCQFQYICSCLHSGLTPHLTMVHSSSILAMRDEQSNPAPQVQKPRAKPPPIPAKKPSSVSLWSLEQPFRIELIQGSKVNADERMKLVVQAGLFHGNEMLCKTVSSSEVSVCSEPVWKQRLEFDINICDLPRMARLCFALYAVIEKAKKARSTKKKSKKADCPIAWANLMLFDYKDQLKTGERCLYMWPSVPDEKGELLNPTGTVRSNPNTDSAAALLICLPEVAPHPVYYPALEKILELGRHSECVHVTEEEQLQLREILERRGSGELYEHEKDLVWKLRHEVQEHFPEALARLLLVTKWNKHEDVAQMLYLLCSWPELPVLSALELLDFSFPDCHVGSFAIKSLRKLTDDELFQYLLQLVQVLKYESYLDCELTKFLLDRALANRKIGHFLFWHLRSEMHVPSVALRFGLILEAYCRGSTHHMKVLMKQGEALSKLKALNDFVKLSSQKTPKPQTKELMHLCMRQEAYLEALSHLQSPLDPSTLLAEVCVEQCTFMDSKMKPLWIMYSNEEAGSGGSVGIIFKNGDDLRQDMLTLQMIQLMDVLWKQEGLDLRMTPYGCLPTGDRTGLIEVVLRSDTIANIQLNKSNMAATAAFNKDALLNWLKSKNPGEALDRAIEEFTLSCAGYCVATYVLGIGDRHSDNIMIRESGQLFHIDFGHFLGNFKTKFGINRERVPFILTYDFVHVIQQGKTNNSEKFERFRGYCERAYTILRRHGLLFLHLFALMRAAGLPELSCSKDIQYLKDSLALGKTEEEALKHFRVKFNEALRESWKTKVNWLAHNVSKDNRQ
Sequence of PI3Kδ (p110δ/p85α) Recombinant Human Protein (P27986 whole entry partner): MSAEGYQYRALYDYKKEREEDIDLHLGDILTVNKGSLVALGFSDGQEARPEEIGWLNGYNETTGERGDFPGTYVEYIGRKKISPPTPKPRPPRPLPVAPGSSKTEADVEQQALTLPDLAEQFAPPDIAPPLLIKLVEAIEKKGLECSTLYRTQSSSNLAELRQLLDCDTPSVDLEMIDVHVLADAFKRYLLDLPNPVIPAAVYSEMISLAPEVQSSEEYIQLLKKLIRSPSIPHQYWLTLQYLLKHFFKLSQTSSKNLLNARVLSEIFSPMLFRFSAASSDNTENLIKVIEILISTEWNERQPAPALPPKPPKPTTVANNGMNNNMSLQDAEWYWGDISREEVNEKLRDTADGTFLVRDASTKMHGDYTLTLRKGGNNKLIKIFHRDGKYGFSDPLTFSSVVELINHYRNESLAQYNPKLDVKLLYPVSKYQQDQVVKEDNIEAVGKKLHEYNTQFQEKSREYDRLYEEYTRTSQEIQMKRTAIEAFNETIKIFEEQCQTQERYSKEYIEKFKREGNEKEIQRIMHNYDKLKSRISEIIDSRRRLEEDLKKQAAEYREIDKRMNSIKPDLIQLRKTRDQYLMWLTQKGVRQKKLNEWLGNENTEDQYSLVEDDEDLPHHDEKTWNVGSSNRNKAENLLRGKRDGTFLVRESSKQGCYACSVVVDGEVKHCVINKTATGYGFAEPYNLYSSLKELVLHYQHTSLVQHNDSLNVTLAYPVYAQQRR
How it was run: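 Recombinant human p110δ/p85α was run at room temperature in 20 mM MOPS pH 6.7, 10 mM MgCl2, 5 mM DTT, 0.03% CHAPS, 2% DMSO. Substrates were 20 µM PIP2 and 2 µM ATP with [γ-33P]ATP. Product was captured overnight on WGA SPA beads and counted by scintillation; IC50 fitted from percent of solvent control versus log concentration.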

[3] = system: Phosphorylated Ribosomal Protein S6 (RPS6) in THP-1 cells; assay: THP-1 RPS6 ELISA assay; assay type: cell-based, Human; conditions: serum starved, 2 h compound, 10 nM MCP-1 for 15 min, phospho-RPS6 ELISA, read-out: PI3Kγ_THP1_RPS6_ELISA IC50
How it was run: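 Phospho-RPS6 in lysates measured by ELISA at 450 nm, corrected at 540 nm, after MCP-1 challenge (10 nM, 15 min) of THP-1 cells that were starved overnight and exposed to test compound for 2 h at 37° C, 2×10^5 cells/well. Curve fit of percent inhibition gives IC50.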

[4] = Homo sapiens, THP-1, THP-1 cells

Structure (SMILES) | IC50 [1] [nM] | IC50 [2] [nM] | IC50 [3, 4] [nM] | IC50 ([3]; THP-1 cells) [nM]
[2H]C([2H])([2H])n1nccc1-c1cn2c(-c3cc(C(O)(CO)C(F)(F)F)ccc3C)cnc2c(N)n1 (single isomer, unassigned) [Example 66, 2-(3-(8-Amino-6-(1-(methyl-d3)-1H-pyrazol-5-yl)imidazo[1,2-a]pyrazin-3-yl)-4-methylphenyl)-3,3,3-trifluoropropane-1,2-diol] | < 100 | < 100 | < 100 | –
Cc1nc(N)c2ncc(-c3cc(C(O)(C(F)F)C(F)F)ccc3C)n2n1 [Example 112, 2-(3-(4-Amino-2-methylimidazo[2,1-f][1,2,4]triazin-7-yl)-4-methylphenyl)-1,1,3,3-tetrafluoropropan-2-ol trifluoroacetate salt] | < 100 | 500 to 2000 | 500 to 1000 | –
Cc1ccc(C(C)(O)C(F)(F)F)cc1-c1cnc2c(N)nc(C(F)(F)F)nn12 (stereo not drawn) [Example 1, 2-(3-(4-Amino-2-(trifluoromethyl)imidazo[2,1-f][1,2,4]triazin-7-yl)-4-methylphenyl)-1,1,1-trifluoropropan-2-ol] | < 100 | 100 to 500 | 100 to 500 | –
Cc1ccc(C(C)(O)C(F)F)cc1-c1cnc2c(N)nc(C3CC3C(=O)NC(C)(C)CO)cn12 (stereo not drawn) [Example 78, 2-(8-Amino-3-(5-(1,1-difluoro-2-hydroxypropan-2-yl)-2-methylphenyl)imidazo[1,2-a]pyrazin-6-yl)-N-(1-hydroxy-2-methylpropan-2-yl)cyclopropane-1-carboxamide] | < 100 | 100 to 500 | 100 to 500 | –
Cc1ccc(C(C)(O)C(F)F)cc1-c1cnc2c(N)nc(-c3cncc(S(C)(=O)=O)c3)cn12 (stereo not drawn) [Example 106, 2-(3-(8-Amino-6-(5-(methylsulfonyl)pyridin-3-yl)imidazo[1,2-a]pyrazin-3-yl)-4-methylphenyl)-1,1-difluoropropan-2-ol] | < 100 | 100 to 500 | 100 to 500 | –
Cc1ccc(C2(O)CCCC2F)cc1-c1cnc2c(N)nc(C(F)(F)F)cn12 (stereo not drawn) [Example 61, 1-(3-(8-Amino-6-(trifluoromethyl)imidazo[1,2-a]pyrazin-3-yl)-4-methylphenyl)-2-fluorocyclopentan-1-ol trifluoroacetate salt] | < 100 | 100 to 500 | 100 to 500 | –
Cc1cc(-c2cn3c(-c4cc(C(C)(O)C(F)F)ccc4C)cnc3c(N)n2)n(C)n1 (stereo not drawn) [Example 41, 2-(3-(8-Amino-6-(1,3-dimethyl-1H-pyrazol-5-yl)imidazo[1,2-a]pyrazin-3-yl)-4-methylphenyl)-1,1-difluoropropan-2-ol] | < 100 | 100 to 500 | 100 to 500 | –
Cc1ccc(C(C)(O)C(F)F)cc1-c1cnc2c(N)nc(-c3ccnn3C)cn12 (single isomer, unassigned) [Example 30, 2-(3-(8-Amino-6-(1-methyl-1H-pyrazol-5-yl)imidazo[1,2-a]pyrazin-3-yl)-4-methylphenyl)-1,1-difluoropropan-2-ol] | < 100 | 100 to 500 | – | 100 to 500
Cc1ncc(-c2nc(N)c3ncc(-c4cc(C(C)(O)C(F)F)ccc4C)n3n2)o1 (single isomer, unassigned) [Example 52, 2-(3-(4-Amino-2-(2-methyloxazol-5-yl)imidazo[2,1-f][1,2,4]triazin-7-yl)-4-methylphenyl)-1,1-difluoropropan-2-ol trifluoroacetate salt] | < 100 | 100 to 500 | 100 to 500 | –
Cc1ccc(C(C)(O)C(F)(F)F)cc1-c1cnc2c(N)nc(C(=O)NCC(C)(C)O)cn12 (single isomer, unassigned) [Example 63, 8-amino-N-(2-hydroxy-2-methylpropyl)-3-(2-methyl-5-(1,1,1-trifluoro-2-hydroxypropan-2-yl)phenyl)imidazo[1,2-a]pyrazine-6-carboxamide] | < 100 | 100 to 500 | – | 100 to 500
COc1ncccc1-c1cn2c(-c3cc(C(C)(O)C(F)F)ccc3C)cnc2c(N)n1 (stereo not drawn) [Example 33, 2-(3-(8-Amino-6-(2-methoxypyridin-3-yl)imidazo[1,2-a]pyrazin-3-yl)-4-methylphenyl)-1,1-difluoropropan-2-ol] | < 100 | 100 to 500 | < 100 | –
Cc1ccc(C(O)(C(F)(F)F)C(F)(F)F)cc1-c1cnc2c(N)nc(-c3ccnn3C)cn12 [Example 264, 2-(3-(8-Amino-6-(1-methyl-1H-pyrazol-5-yl)imidazo[1,2-a]pyrazin-3-yl)-4-methylphenyl)-1,1,1,3,3,3-hexafluoropropan-2-ol] | < 100 | < 100 | < 100 | –
COc1cnc(-c2cn3c(-c4cc(C(C)(O)C(F)(F)F)ccc4C)cnc3c(N)n2)s1 (stereo not drawn) [Example 21, 2-(3-(8-Amino-6-(5-methoxythiazol-2-yl)imidazo[1,2-a]pyrazin-3-yl)-4-methylphenyl)-1,1,1-trifluoropropan-2-ol, TFA] | < 100 | < 100 | 100 to 500 | –
Cc1ccc(C(C)(O)C(F)F)cc1-c1cnc2c(N)nc(C(F)(F)F)cn12 (single isomer, unassigned) [Example 26, 2-(3-(8-Amino-6-(trifluoromethyl)imidazo[1,2-a]pyrazin-3-yl)-4-methylphenyl)-1,1-difluoropropan-2-ol] | < 100 | 500 to 2000 | – | 500 to 1000
[2H]C([2H])([2H])c1ccc(C(O)(C(C)O)C(F)(F)F)cc1-c1cnc2c(N)nc(C(F)(F)F)cn12 (single isomer, unassigned) [Example 233, 2-(3-(8-Amino-6-(trifluoromethyl)imidazo[1,2-a]pyrazin-3-yl)-4-(methyl-d3)phenyl)-1,1,1-trifluorobutane-2,3-diol trifluoroacetate salt] | < 100 | 100 to 500 | 100 to 500 | –
Cc1ccc(C(C)(O)C(F)F)cc1-c1cnc2c(N)nc(-c3ccc(B(O)O)cc3)cn12 (stereo not drawn) [Example 108, (4-(8-amino-3-(5-(1,1-difluoro-2-hydroxypropan-2-yl)-2-methylphenyl)imidazo[1,2-a]pyrazin-6-yl)phenyl)boronic acid trifluoroacetate salt] | < 100 | < 100 | < 100 | –
Cc1ccc(C(C)(O)CF)cc1-c1cnc2c(N)nc(C(F)(F)F)cn12 (racemic) [Example 24, 2-(3-(8-Amino-6-(trifluoromethyl)imidazo[1,2-a]pyrazin-3-yl)-4-methylphenyl)-1-fluoropropan-2-ol trifluoroacetate salt] | < 100 | 500 to 2000 | 500 to 1000 | –
CCOC(=O)C1CC1c1cn2c(-c3cc(C(C)(O)C(F)F)ccc3C)cnc2c(N)n1 (single isomer, unassigned) [Example 75, Ethyl 2-(8-amino-3-(5-(1,1-difluoro-2-hydroxypropan-2-yl)-2-methylphenyl)imidazo[1,2-a]pyrazin-6-yl)cyclopropane-1-carboxylate trifluoroacetate salt] | < 100 | 100 to 500 | 100 to 500 | –
Cc1ccc(C(O)(CCO)C(F)(F)F)cc1-c1cnc2c(N)nc(C(F)(F)F)cn12 (stereo not drawn) [Example 18, 3-(3-(8-Amino-6-(trifluoromethyl)imidazo[1,2-a]pyrazin-3-yl)-4-methylphenyl)-4,4,4-trifluorobutane-1,3-diol] | < 100 | 100 to 500 | 100 to 500 | –
